Measurements taken from US20110008466A1, “METHODS AND COMPOSITIONS FOR ALTERING CELL FUNCTION” (ALLTECH, INC., priority 2006, published 2011).

What was measured:
[1] = system: Cu chaperone for SOD (CCS); assay: Microarray gene expression, mouse intestine; assay type: in vivo, mice; conditions: 1 ppm Se diet 100 days vs Se-deficient diet
From the text: (§1) Animal Care. Male C57BL/6J mice were housed singly and started on the experimental diets described below immediately after weaning (21 days of age). The mice were maintained in the Shared Aging Rodent Facility at the William S. Middleton Memorial Veterans Administration Medical Center (Madison, Wis.). Temperature and humidity were maintained at constant levels. Room light was controlled to provide 12-hr cycles of light and dark.
(§2) Experimental diets were created by Harlan Teklad (Madison, Wis.). Selenium content of the diets was determined by Covance Inc. (Madison, Wis.). Five (5) animals were included in each of the following treatment groups: a diet deficient in selenium (SD); a diet supplemented with selenomethionine (SM, obtained from Sigma, St. Louis, Mo.) such that the final selenium content of the diet was one (1) part per million; a diet supplemented with sodium selenite (SS, Sigma) such that the final concentration of selenium in this diet was one (1) part per million; or a diet supplemented with the yeast selenium SEL-PLEX (SP, Alltech, Lexington, Ky.), such that the final concentration of selenium in this diet was one (1) part per million. SEL-PLEX. Mice were provided with water and their respective diet ad libitum for 100 days. Diets were stored at the dark at 4° C. and fresh diet was added to feeder twice weekly.
(§3) Tissue sample preparation and microarray analysis. Mice were killed at 100 days of age by cervical dislocation. For intestinal expression studies, the intestine was flushed twice with saline solution and small intestine was measured and divided in three equal segments. A 3-cm region of the middle segment of the small intestine corresponding to the jejunum (˜300 mg of tissue) was cut and rinsed again with physiological saline to completely remove contents, flash frozen in liquid nitrogen and stored at −80° C. For brain (e.g., cerebral cortex) studies, the cerebral cortex was separated from the surrounding brain tissue and was flash frozen in liquid nitrogen and stored at −80° C.
(§4) Total RNA was isolated from using the guanidinium isothiocyanate method of TRIZOL (Life Technologies, Grand Island, N.Y.) and individual samples were used for gene expression profiles. Total RNA was cleaned up by RNeasy Mini kit (Qiagen, Valencia, Calif.). Target RNA was prepared by converting […] total RNA into double-strand cDNA using GeneChip Expression 3′-Amplification Reagents One-Cycle cDNA Synthesis Kit (Affymetrix, Santa Clara, Calif.) with a T7-(dT)24 primer incorporating a T7 RNA polymerase promoter. After cleaning up double-strand cDNA using Genechip Sample Cleanup Module (Affymetrix, Santa Clara, Calif.), biotin-labeled cRNA was synthesized from double-strand cDNA using GeneChip Expression 3′-Amplification Reagents for IVT Labeling (Affymetrix, Santa Clara, Calif.). The biotin-labeled cRNA was cleaned up using Genechip Sample Cleanup Module and was fragmented by heating (35 min at 94° C.).
(§5) Fifteen (15) μg of cRNA fragments were hybridized (16 h at 45° C.) to Mouse Genome 430 2.0 Array (Affymetrix, Santa Clara, Calif.) using GeneChip Hybridization Oven 640. After hybridization, the gene chips were automatically washed and stained with streptavidin-phycoerythrin biotinylated anti-streptavidin using Affymetrix GeneChip Fluidics Station 450. The DNA chips were scanned with Affymetrix GeneChip Scanner 3000 (Affymetrix, Santa Clara, Calif.) to detect the cell signal intensities by laser. All calculations were performed with Affymetrix GeneChip Operating Software (GCOS) version 1.3 after scanning
(§6) • 1. The spreadsheet containing probe set identifiers and signal intensity values was opened in Microsoft Excel (version 11.1.1 for the Macintosh OS-X operating system) and summary statistics were generated (mean signal intensity for each treatment group, standard error of the mean). Two-tailed t-tests (equal variance) were performed for the following treatment groups: SM vs. SD, SS vs. SD, and SP vs. SD. […]

[2] = system: Growth arrest and DNA-damage-inducible 45 beta (Gadd45b); assay: Microarray gene expression, mouse intestine; assay type: in vivo, mice; conditions: intestinal tissue; vs Se-deficient; minus = down
From the text: as §1, §2, §3, §4, §5, §6

[3] = system: Growth arrest and DNA-damage-inducible 45 gamma (Gadd45g); assay: Microarray gene expression, mouse intestine; assay type: in vivo, mice; conditions: vs Se-deficient diet, minus = down
From the text: as §1, §2, §3, §4, §5, §6

SOD1 = assay: Microarray gene expression, mouse intestine; assay type: in vivo, mice; conditions: 1 ppm Se diet 100 days vs Se-deficient diet
From the text: as §1, §2, §3, §4, §5, §6

SelR (Selenoprotein X1) = assay: Microarray gene expression, mouse intestine; assay type: in vivo, mice; conditions: 1 ppm Se diet 100 days vs Se-deficient diet
From the text: as §1, §2, §3, §4, §5, §6

Selenoprotein W (SelW) = assay: Microarray gene expression, mouse intestine; assay type: in vivo, mice; conditions: 1 ppm Se diet 100 days vs Se-deficient diet
From the text: as §1, §2, §3, §4, §5, §6

Thioredoxin Reductase 1 = assay: Microarray gene expression, mouse intestine; assay type: in vivo, mice; conditions: 1 ppm Se diet 100 days vs Se-deficient diet, all p <0.01
From the text: as §1, §2, §3, §4, §5, §6

[4] = system: Type 1 iodothyronine deiodinase; assay: Microarray gene expression, mouse intestine; assay type: in vivo, mice; conditions: 1 ppm Se diet 100 days vs Se-deficient diet
From the text: as §1, §2, §3, §4, §5, §6

calpain-5 = assay: Expression level of calpain genes after selenium administration; assay type: in vivo; conditions: tissue not stated; minus = down; asterisk not explained
Description: Compositions and methods of the present invention were analyzed to determine if they were capable of altering the expression levels of calpain genes. Compositions comprising various forms of selenium (e.g., SeM, Sod-sel, and SEL-PLEX) were administered to subjects and the expression levels of calpain genes monitored. The expression level of calpain-5 was altered by treatment in the following ways: free selenomethionine (SM)+1.32*, Sod-sel −1.07, SEL-PLEX −1.44*.

[5] = system: Complement component 1, q subcomponent binding protein, C1qbp; assay: Microarray gene expression, mouse cerebral cortex; assay type: in vivo, mice; conditions: vs Se-deficient diet, minus = down, * = significant p<0.01
From the text: as §1, §2, §3, §4, §5, §6

[6] = system: Complement component 1, q subcomponent, beta polypeptide, C1qbp; assay: Microarray gene expression, mouse cerebral cortex; assay type: in vivo, mice; conditions: vs Se-deficient diet, minus = down, * = significant p<0.01
From the text: as §1, §2, §3, §4, §5, §6

Gadd45b [7] = assay: Microarray gene expression, mouse cerebral cortex; assay type: in vivo, mice; conditions: minus = down; for Fold change Gadd45b gene expression, ctx (Table 14): cortex tissue, vs Se-deficient
From the text: as §1, §2, §3, §4, §5, §6

[8] = system: Gadd45g1p (Growth arrest and DNA-damage inducible 45 gamma interacting protein); assay: Microarray gene expression, mouse cerebral cortex; assay type: in vivo, mice; conditions: brain; minus = down; * significant relative to Se-deficient animals
From the text: as §1, §2, §3, §4, §5, §6

[9] = system: cyclin-dependent kinase 5 (Cdk-5); assay: Microarray gene expression, tau kinases, brain; assay type: in vivo, mice; conditions: vs non-selenium supplemented diet, minus = down, * significant
From the text: as §1, §2, §3
(§7) Total RNA was isolated from using the guanidinium isothiocyanate method of TRIZOL (Life Technologies, Grand Island, N.Y.) and individual samples were used for gene expression profiles. Total RNA was cleaned up by RNeasy Mini kit (Qiagen, Valencia, Calif.). Target RNA was prepared by converting […] total RNA into double-strand cDNA using GeneChip Expression 3′-Amplification Reagents One-Cycle cDNA Synthesis Kit (Affymetrix, Santa Clara, Calif.) with a T7-(dT)24 primer incorporating a T7 RNA polymerase promoter. […]

[10] = system: glycogen synthase kinase-3-beta (GSK-3β); assay: Microarray gene expression, tau kinases, brain; assay type: in vivo, mice; conditions: vs non-selenium supplemented diet, minus = down, * significant
From the text: as §1, §2, §3, §7

Gadd45b [11] = assay: Gene expression, liver tissue; assay type: in vivo, mice; conditions: vs Se-deficient, minus = down
From the text: as §1
as §2, with “Diets were stored at the dark at 4° C. and fresh diet was added to feeder twice weekly.” left out
(§8) • 1. […] Additionally, a “signal intensity score” was calculated for each probe set as the sum of the signal intensities for all chips (N=20). • 2. […]

Gadd45b [12] = assay: Gene expression, skeletal muscle tissue; assay type: in vivo, mice; conditions: vs Se-deficient, minus = down
From the text: as §1
as §2, with “Diets were stored at the dark at 4° C. and fresh diet was added to feeder twice weekly.” left out
as §8

Gadd45g1p = assay: Microarray gene expression, mouse intestine; assay type: in vivo, mice; conditions: p<0.05
From the text: as §1, §2, §3, §4, §5, §6

Glyoxalase 1 (Glo1) = assay: Microarray gene expression, mouse intestine; assay type: in vivo, mice; conditions: 1 ppm Se diet 100 days vs Se-deficient diet, p<0.01
From the text: as §1, §2, §3, §4, §5, §6

[13] = system: LIM homeobox protein 8 gene (Lhx8); assay: Microarray gene expression, mouse intestine; assay type: in vivo, mice; conditions: vs Se-deficient subjects, p<0.01
From the text: as §1, §2, §3, §4, §5, §6

Neurogenin 3 (Neurog3) = assay: Microarray gene expression, mouse intestine; assay type: in vivo, mice; conditions: vs Se-deficient diet
From the text: as §1, §2, §3, §4, §5, §6

Prohibitin (Phb) = assay: Microarray gene expression, mouse intestine; assay type: in vivo, mice; conditions: vs Se-deficient diet, p<0.05
From the text: as §1, §2, §3, §4, §5, §6

selenoprotein N1 (Sepn1) = assay: Microarray gene expression, mouse intestine; assay type: in vivo, mice; conditions: 1 ppm Se diet 100 days vs Se-deficient diet, p<0.02
From the text: as §1, §2, §3, §4, §5, §6

[14] = system: sprouty homolog 2 gene (Spry2); assay: Microarray gene expression, mouse intestine; assay type: in vivo, mice; conditions: relative to Se-deficient controls
From the text: as §1, §2, §3, §4, §5, §6

[15] = system: transforming growth factor beta 2 (TGF-β2); assay: Microarray gene expression, mouse intestine; assay type: in vivo, mice; conditions: vs controls
From the text: as §1, §2, §3, §4, §5, §6

[16] = system: type II iodothyronine deiodinase (Dio2); assay: Microarray gene expression, mouse intestine; assay type: in vivo, mice; conditions: 1 ppm Se diet 100 days vs Se-deficient diet
From the text: as §1, §2, §3, §4, §5, §6

GST genes = assay: Microarray gene expression, mouse intestine (summary of Table 3); assay type: in vivo, mice; conditions: vs Se-deficient diet
From the text: as §1
as §2, with “Mice were provided with water and their respective diet ad libitum for 100 days. Diets were stored at the dark at 4° C. and fresh diet was added to feeder twice weekly.” left out
(§9) Tissue sample preparation and microarray analysis. […] For intestinal expression studies, the intestine was flushed twice with saline solution and small intestine was measured and divided in three equal segments. […]

[17] = system: complement component genes; assay: Microarray gene expression, mouse cerebral cortex (summary of Table 6); assay type: in vivo, mice; conditions: p<0.01
From the text: as §1
as §2, with “Mice were provided with water and their respective diet ad libitum for 100 days. Diets were stored at the dark at 4° C. and fresh diet was added to feeder twice weekly.” left out
as §9

CORS-26 = assay: Microarray gene expression, mouse cerebral cortex; assay type: in vivo, mice; conditions: Example 10 (brain); vs Se-deficient diet
From the text: as §1, §2, §3, §4, §5, §6

O=[Se](O)O [Sod-sel, sodium selenite]
fold enhancement in expression of Cu chaperone for SOD (CCS) [1]: 1.28 fold
Fold change Gadd45b gene expression, int (Table 14) [2]: 1.08 fold
FC Gadd45g expression (Table 2) [3]: −2.0 (p < 0.01) fold
fold enhanced expression of SOD1 (SOD1): 1.92 fold
fold upregulation of SelR gene (SelR (Selenoprotein X1)): 1.3 fold
fold upregulation of Selenoprotein W (SelW) expression (Selenoprotein W (SelW)): 5.1 fold
fold increase in expression of the Thioredoxin Reductase 1 gene (Thioredoxin Reductase 1): 1.7 fold
fold increase in expression of Type 1 iodothyronine deiodinase [4]: 2.8 fold
expression level of calpain-5 altered by treatment (calpain-5): −1.07
FC C1qbp (C1q binding protein) expression [5]: 1.11 fold
FC C1q beta polypeptide (printed C1qbp) expression [6]: −1.35 fold
FC Gadd45b expression (Table 11) (Gadd45b [7]; brain, * significant relative to Se-deficient animals): −1.39* fold
Fold change Gadd45b gene expression, ctx (Table 14) (Gadd45b [7]): −1.33 fold
FC Gadd45g1p expression (Table 11) [8]: −1.12 fold
FC CdK5 gene expression ([9]; listed as SS): −1.13 fold
FC GsKβ3 (GSK-3β) gene expression ([10]; listed as SS): −1.63* fold
Fold change Gadd45b gene expression, liv (Table 14) (Gadd45b [11]): 1.25 fold
Fold change Gadd45b gene expression, skm (Table 14) (Gadd45b [12]): −2.42 fold

C[Se]CC[C@H](N)C(=O)O [SeM, selenomethionine]
expression of Gadd45g1p in intestinal tissue (Gadd45g1p): decreased expression
fold reduction of Glo1 expression (Glyoxalase 1 (Glo1)): not significantly affected
Fold change Gadd45b gene expression, int (Table 14) [2]: −1.07 fold
FC Gadd45g expression (Table 2) [3]: −1.5 (p < 0.05) fold
fold upregulation of Lhx8 expression [13]: not significantly different
fold upregulation of Neurog3 expression (Neurogenin 3 (Neurog3)): no significant alteration
fold upregulation of Prohibitin (Phb) expression (Prohibitin (Phb)): 1.6 fold
fold upregulation of SelR gene (SelR (Selenoprotein X1)): not significantly affected
fold upregulation of Selenoprotein W (SelW) expression (Selenoprotein W (SelW)): not significantly altered
fold increase in expression of Type 1 iodothyronine deiodinase [4]: 2.0 fold
fold increase of selenoprotein N1 (Sepn1) gene expression (selenoprotein N1 (Sepn1)): not significantly affected
fold reduction in Spry2 gene expression [14]: no alteration
fold upregulation of TGF-β2 expression [15]: not altered
fold down-regulation of Dio2 expression [16]: no ability to alter
alteration of expression pattern of GST genes (summary in words) (GST genes): no alteration
down-regulation of complement component genes (summary in words) [17]: did not provide a statistically significant alteration
fold reduction in expression of CORS-26 (CORS-26): no alteration
Fold change Gadd45b gene expression, ctx (Table 14) (Gadd45b [7]; listed as Selenomethionine): −1.26 fold
Fold change Gadd45b gene expression, ctx (Table 14) (Gadd45b [7]; listed as selenomethionine): significant reduction
FC CdK5 gene expression ([9]; listed as SM): −1.00 fold
FC GsKβ3 (GSK-3β) gene expression ([10]; listed as SM): −1.10 fold
Fold change Gadd45b gene expression, liv (Table 14) (Gadd45b [11]): 1.24 fold
Fold change Gadd45b gene expression, skm (Table 14) (Gadd45b [12]): 1.02 fold
